This is an account of results in ChEMBL document CHEMBL1158559, “Chromone-2- and -3-carboxylic acids inhibit differently monoamine oxidases A and B” (Bioorg Med Chem Lett, 2010).

Molecules are shown by their SMILES.

Experiment [1] has as its target T1, Amine oxidase [flavin-containing] A (Homo sapiens, UniProt P21397).
T1 sequence (P21397 whole entry): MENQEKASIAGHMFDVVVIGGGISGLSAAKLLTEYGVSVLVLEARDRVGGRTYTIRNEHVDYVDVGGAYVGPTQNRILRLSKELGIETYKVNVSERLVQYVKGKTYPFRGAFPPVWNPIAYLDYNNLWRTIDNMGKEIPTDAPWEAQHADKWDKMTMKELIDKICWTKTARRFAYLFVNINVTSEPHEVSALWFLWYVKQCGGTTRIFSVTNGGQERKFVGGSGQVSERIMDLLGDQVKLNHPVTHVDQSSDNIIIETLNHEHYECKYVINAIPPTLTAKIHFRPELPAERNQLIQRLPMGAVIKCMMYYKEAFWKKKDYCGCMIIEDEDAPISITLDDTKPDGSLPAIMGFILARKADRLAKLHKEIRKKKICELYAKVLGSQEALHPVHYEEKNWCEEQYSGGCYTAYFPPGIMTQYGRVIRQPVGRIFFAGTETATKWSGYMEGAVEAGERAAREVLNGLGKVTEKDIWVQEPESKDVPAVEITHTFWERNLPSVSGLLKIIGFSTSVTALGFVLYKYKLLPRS
The experiment is described as follows: Inhibition of human recombinant MAO-A assessed as inhibition of production of hydrogen peroxide at 100 uM after 15 mins by the Amplex Red fluorimetric method.

Experiment [2] deals with T2, Amine oxidase [flavin-containing] B (Homo sapiens, UniProt P27338).
T2 sequence (P27338 whole entry): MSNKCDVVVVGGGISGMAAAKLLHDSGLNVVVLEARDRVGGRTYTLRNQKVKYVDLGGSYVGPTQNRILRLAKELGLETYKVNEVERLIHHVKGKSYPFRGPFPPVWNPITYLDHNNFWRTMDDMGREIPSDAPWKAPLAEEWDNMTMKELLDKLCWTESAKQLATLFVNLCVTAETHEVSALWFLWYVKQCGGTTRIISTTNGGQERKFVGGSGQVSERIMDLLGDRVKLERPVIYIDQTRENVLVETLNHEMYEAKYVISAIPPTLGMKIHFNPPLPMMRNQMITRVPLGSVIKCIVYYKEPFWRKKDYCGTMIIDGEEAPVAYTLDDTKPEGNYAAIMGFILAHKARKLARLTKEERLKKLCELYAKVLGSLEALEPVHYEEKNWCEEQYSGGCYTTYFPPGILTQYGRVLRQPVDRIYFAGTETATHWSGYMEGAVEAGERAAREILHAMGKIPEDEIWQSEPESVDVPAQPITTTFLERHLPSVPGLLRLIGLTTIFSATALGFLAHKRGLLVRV
The experiment in a line: Inhibition of human recombinant MAO-B assessed as inhibition of production of hydrogen peroxide at 100 uM after 15 mins by the Amplex Red fluorimetric method.

Experiment [3] deals with T2, Amine oxidase [flavin-containing] B. The experiment in a line: Inhibition of human recombinant MAO-B assessed as inhibition of production of hydrogen peroxide at 1 mM after 15 mins by the Amplex Red fluorimetric method.

Consider `O=C(O)c1coc2ccccc2c1=O`, for which the IC50 result in experiment [1] is “Not Active”.

With `O=C(O)c1cc(=O)c2ccccc2o1` [CHROMOCARB], the IC50 result in experiment [1] and in experiment [2] was “Not Active” throughout. With `O=C(NCCN1CCOCC1)c1ccc(Cl)cc1` [MOCLOBEMIDE], the IC50 entry in experiment [3] was “Not Active”.
